Results taken from patent US3944498A, “Germicidal detergent containing a thienyliodonium salt” (The Dow Chemical Company, priority 1973, dated 1976).

Legend:
A. aerogenes = assay: Agar plate kill test with Ivory soap, A. aerogenes; assay type: cell-based; settings: Klebsiella aerogenes, 48 h, read-out: Percent Kill of A. aerogenes
Experimental: (§1) Phenyl-2-thienyliodonium chloride, 2,2'-bisthienyliodonium chloride, and, for comparative purposes, diphenyliodonium chloride are individually dispersed in Ivory soap to provide concentrates containing 1 part by weight of iodonium salt to 50 parts by weight of soap. The soap concentrates are serially dispersed and serially diluted with liquid nutrient agar at 42°C. to prepare culture media containing various concentrations of one of the iodonium salts. The culture media are uniformly inoculated with S. aureus and plated in petri dishes. The inoculation is carried out from broth cultures of the named organism containing about 5×10^8 organisms per milliliter in the proportion of one-tenth milliliter of bacterial culture per 20 milliliters of cultur medium containing each test compound. In a check operation, nutrient agar containing the same amount of Ivory soap is similarly inoculated with the same organism. After two days' incubation at 37°C., the plates are examined for microbial growth.
The procedure described above is repeated with varying concentrations of 4-chlorophenyl-2-thienyliodonium chloride, 3,4-dichlorophenyl-2-thienyliodonium chloride, and for comparative purposes bis(4-chlorophenyl)iodonium chloride, phenyl-4-chlorophenyliodonium chloride and bis(2,4-dichlorophenyl)iodoniumchloride in a series of tests wherein the culture media are inoculated individually with the organism A. aerogenes.
The procedure described above is once again repeated with each of 2,2'-bisthienyliodonium chloride, phenyl-2-thienyliodonium chloride, 4-bromophenyl-2-thienyliodonium chloride, bis(4-bromophenyl)iodonium chloride and bis(4-bromophenyl)iodonium bromide in a series of tests wherein the culture media are inoculated individually with the organism A. aerogenes.

S. aureus = assay: Nutrient agar growth test, S. aureus (Example 3); assay type: cell-based; settings: 0.001 percent by weight, 2 days, 35°C
Source text: (§2) The 4-chlorophenyl-2-thienyliodonium chloride, trifluoroacetate and trichloroacetate salts are dispersed in melted nutrient agar to produce culture media containing 0.001 percent by weight of one of the salt compounds. Such melted media are then poured into petri dishes and the solidified surface in each dish inoculated with a 24-hour broth culture, one of the organisms S. aureus and S. typhosa. In a check operation, petri dishes containing unmodified nutrient agar are each individually inoculated in the same manner with the named organisms. After two days' incubation at 35°C. the agar surface in each dish is examined for microbial growth. […] At the time of these observations the check dishes are found to support a heavy growth of the two named organisms.

Swiss mice (Cox strain) = assay: Oral median lethal dose in Swiss mice (Cox strain); assay type: in vivo
Experimental: (§3) Five groups of mice, each consisting of 15 males and 15 females, were given ClPhThICl in an aqueous 0.5 percent METHOCEL hydroxypropyl methylcellulose (4000 cps.) suspension at a concentration of 300 mg/ml. The compound was administered as a single oral dose at 0.2 logarithmic dose intervals (708, 1120, 1780, 2820, 4450 mg/kg) and the following mortality experience was noted:
(§4) The percent of total mortalities occurring was 16.0, 66.6, 81.5, and 91.3 at 6, 24, 48 and 72 hours post-treatment, respectively. The last death occurred in a female (1120 mg/kg group) on day 14 of the study.

[1] = Oral median lethal dose in Swiss mice (Cox strain); assay type: in vivo; settings: mouse, in vivo, po; for LD50 at 168 h: 7 days; for LD50 at 336 h: 14 days
Experimental: as §3, §4

S. typhosa [2] = assay: Agar plate kill test with Ivory soap, S. typhosa; assay type: cell-based; settings: 48 h; 1 p.p.m., Ivory soap; read-out: Percent Kill of S. Typhosa
Experimental: as §1
The procedure described above is again repeated in a series of tests wherein the culture media are inoculated individually with the organism S. typhosa and wherein the culture media contain varying concentrations of one of the iodonium salts, as set forth in following Table II.

S. typhosa [3] = assay: Nutrient agar growth test, S. typhosa (Example 3); assay type: cell-based; settings: 0.001 percent by weight, 2 days, 35°C
Source text: as §2

[4] = male mice, 95% confidence limits 1353-2288 mg/kg

With `Clc1ccc([I+]c2cccs2)cc1.[Cl-]` [4-Chlorophenyl-2-thienyliodonium chloride] the killing at 1 ppm (A. aerogenes) was 100%, the “microbial growth on agar surface” value (S. aureus) was “free of microbial growth” and the “No. Dead” value (Swiss mice (Cox strain); 708 mg/kg oral, 7 Days, females) was 1/15. The “No. Dead” value (Swiss mice (Cox strain); 708 mg/kg oral, 7 Days, males) was 0/15, the “No. Dead” value (Swiss mice (Cox strain); 708 mg/kg oral, 14 Days, females) was 2/15 and the “No. Dead” value (Swiss mice (Cox strain); 708 mg/kg oral, 14 Days, males) was 1/15. For the same molecule, the “No. Dead” value (Swiss mice (Cox strain); 708 mg/kg oral, 24 Hours, females) was 0/15, the “No. Dead” value (Swiss mice (Cox strain); 708 mg/kg oral, 24 Hours, males) was 0/15 and the “No. Dead” value (Swiss mice (Cox strain); 1120 mg/kg oral, 7 Days, females) was 1/15. For the same molecule, the “No. Dead” value (Swiss mice (Cox strain); 1120 mg/kg oral, 7 Days, males) was 1/15, the “No. Dead” value (Swiss mice (Cox strain); 1120 mg/kg oral, 14 Days, females) was 2/15 and the “No. Dead” value (Swiss mice (Cox strain); 1120 mg/kg oral, 14 Days, males) was 1/15. For the same molecule, the “No. Dead” value (Swiss mice (Cox strain); 1120 mg/kg oral, 24 Hours, females) was 0/15, the “No. Dead” value (Swiss mice (Cox strain); 1120 mg/kg oral, 24 Hours, males) was 0/15 and the “No. Dead” value (Swiss mice (Cox strain); 1780 mg/kg oral, 7 Days, females) was 8/15. For the same molecule, the “No. Dead” value (Swiss mice (Cox strain); 1780 mg/kg oral, 7 Days, males) was 8/15, the “No. Dead” value (Swiss mice (Cox strain); 1780 mg/kg oral, 14 Days, females) was 8/15 and the “No. Dead” value (Swiss mice (Cox strain); 1780 mg/kg oral, 14 Days, males) was 9/15. For the same molecule, the “No. Dead” value (Swiss mice (Cox strain); 1780 mg/kg oral, 24 Hours, females) was 4/15, the “No. Dead” value (Swiss mice (Cox strain); 1780 mg/kg oral, 24 Hours, males) was 3/15 and the “No. Dead” value (Swiss mice (Cox strain); 2820 mg/kg oral, 7 Days, females) was 14/15. For the same molecule, the “No. Dead” value (Swiss mice (Cox strain); 2820 mg/kg oral, 7 Days, males) was 14/15, the “No. Dead” value (Swiss mice (Cox strain); 2820 mg/kg oral, 14 Days, females) was 14/15 and the “No. Dead” value (Swiss mice (Cox strain); 2820 mg/kg oral, 14 Days, males) was 14/15. For the same molecule, the “No. Dead” value (Swiss mice (Cox strain); 2820 mg/kg oral, 24 Hours, females) was 8/15, the “No. Dead” value (Swiss mice (Cox strain); 2820 mg/kg oral, 24 Hours, males) was 11/15 and the “No. Dead” value (Swiss mice (Cox strain); 4450 mg/kg oral, 7 Days, females) was 15/15. The “No. Dead” value (Swiss mice (Cox strain); 4450 mg/kg oral, 7 Days, males) was 15/15, the “No. Dead” value (Swiss mice (Cox strain); 4450 mg/kg oral, 14 Days, females) was 15/15 and the “No. Dead” value (Swiss mice (Cox strain); 4450 mg/kg oral, 14 Days, males) was 15/15. For the same molecule, the “No. Dead” value (Swiss mice (Cox strain); 4450 mg/kg oral, 24 Hours, females) was 13/15, the “No. Dead” value (Swiss mice (Cox strain); 4450 mg/kg oral, 24 Hours, males) was 15/15 and the “percent of total mortalities occurring” value (Swiss mice (Cox strain); 6 hours post-treatment) was 16.0%. For the same molecule, the “percent of total mortalities occurring” value (Swiss mice (Cox strain); 24 hours post-treatment) was 66.6%, the “percent of total mortalities occurring” value (Swiss mice (Cox strain); 48 hours post-treatment) was 81.5% and the “percent of total mortalities occurring” value (Swiss mice (Cox strain); 72 hours post-treatment) was 91.3%. The “time of last death” value (Swiss mice (Cox strain); female, 1120 mg/kg group) was 14 days, the LD50 at 24 h ([1]; female mice, 95% confidence limits 2300-3591 mg/kg) was 2700 mg/kg and the LD50 at 24 h ([1]; male mice, 95% confidence limits 1916-2760 mg/kg) was 2300 mg/kg. It also gave an LD50 at 168 h ([1]; female mice, 95% confidence limits 1172-2455 mg/kg) of 1700 mg/kg, an LD50 at 168 h [1, 4] of 1760 mg/kg and an LD50 at 336 h ([1]; female mice, 95% confidence limits 1264-1975 mg/kg) of 1580 mg/kg. For the same molecule, the LD50 at 336 h [1, 4] was 1760 mg/kg, the killing at 1 ppm (S. typhosa [2]) was 100% and the “microbial growth on agar surface” value (S. typhosa [3]) was “free of microbial growth”.
